Assay results published in US9447078B2, “Substituted heterocyclic compounds for disease treatment” (Acucela Inc., priority 2012, dated 2016).

Molecular target: T1, isomerase (Mus musculus, UniProt Q91ZQ5)
T1 construct: from tissue; host or cells: eyes of living CD-1 (and Balb/c) mice, endogenous protein
T1 sequence (Q91ZQ5 1-533): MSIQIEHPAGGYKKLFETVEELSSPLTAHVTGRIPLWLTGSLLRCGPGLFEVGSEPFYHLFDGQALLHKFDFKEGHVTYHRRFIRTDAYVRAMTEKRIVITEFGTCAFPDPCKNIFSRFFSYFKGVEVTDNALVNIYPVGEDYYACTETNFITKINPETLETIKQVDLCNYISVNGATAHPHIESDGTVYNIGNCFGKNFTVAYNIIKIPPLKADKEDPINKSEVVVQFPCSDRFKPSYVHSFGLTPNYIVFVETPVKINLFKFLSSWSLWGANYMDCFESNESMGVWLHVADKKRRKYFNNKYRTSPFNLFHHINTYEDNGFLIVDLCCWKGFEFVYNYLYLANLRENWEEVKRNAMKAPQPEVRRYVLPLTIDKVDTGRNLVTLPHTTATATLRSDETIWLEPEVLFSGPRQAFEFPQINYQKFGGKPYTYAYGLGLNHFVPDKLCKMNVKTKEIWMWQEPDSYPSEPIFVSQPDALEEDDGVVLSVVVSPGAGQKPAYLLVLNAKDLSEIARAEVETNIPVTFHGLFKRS
Test: In vivo murine isomerase assay (recovery of 11-cis-retinal after photobleaching)
Settings: po, mice, oral gavage
Experimental: The capability of compounds described herein to inhibit isomerase was determined by an in vivo murine isomerase assay. Brief exposure of the eye to intense light (“photobleaching” of the visual pigment or simply “bleaching”) is known to photo-isomerize almost all 11-cis-retinal in the retina. The recovery of 11-cis-retinal after bleaching was used to estimate the activity of isomerase in vivo. Delayed recovery, as represented by lower 11-cis-retinal oxime levels, indicates inhibition of isomerization reaction. Procedures were performed essentially as described by Golczak et al., Proc. Natl. Acad. Sci. USA 102:8162-67 (2005). See also Deigner et al., Science, 244: 968-71 (1989); Gollapalli et al., Biochim Biophys Acta. 1651: 93-101 (2003); Parish, et al., Proc. Natl. Acad. Sci. USA, 14609-13 (1998); Radu, et al., Proc Natl Acad Sci USA 101: 5928-33 (2004).
Six-week old dark-adapted CD-1 (albino) male mice were orally gavaged with compound (0.03-3 mg/kg) dissolved in 100 μl corn oil containing 10% ethanol (five animals per group). After 2-24 hours in the dark, the mice were exposed to photobleaching of 5,000 lux of white light for 10 minutes. The mice were allowed to recover 2 hours in the dark. The animals were then sacrificed by carbon dioxide inhalation. Retinoids were extracted from the eye and the regeneration of 11-cis-retinal was assessed at various time intervals.
All steps were performed in darkness with minimal redlight illumination (low light darkroom lights and red-filtered flashlights for spot illumination as needed) (see, e.g., Maeda et al., J. Neurochem 85:944-956, 2003; Van Hooser et al., J Biol Chem 277:19173-82, 2002). After the mice were sacrificed, the eyes were immediately removed and placed in liquid nitrogen for storage.
The eyes were placed in 500 μL of bis-tris propane buffer (10 mM, pH ˜7.3) and 20 μL of 0.8M hydroxile amine (pH˜7.3). The eyes were cut up into small pieces with small iris scissors and then thoroughly homogenized at 30000 rpm with a mechanical homogenizer (Polytron PT 1300 D) in the tube until no visible tissue remained. 500 μL of methanol and 500 μL of heptane were added to each tube. The tubes were attached to a vortexer so that the contents were mixed thoroughly for 15 minutes in room temperature. The organic phase was separated from the aqueous phase by centrifugation for 10 min at 13K rpm, 4° C. 240 μL of the solution from the top layer (organic phase) was removed and transferred to clean 300 μl glass inserts in HPLC vials using glass pipette and the vials were crimped shut tightly.
The samples were analyzed on an Agilent 1100 HPLC system with normal phase column: SILICA (Beckman Coutlier, dp 5 μm, […]). […] Loading volume for each sample was 100 μl; detection wavelength is 360 nm. The area under the curve for 11-cis retinal oxime was calculated by Agilent Chemstation software and was recorded manually. Data processing was performed using Prizm software.
Positive control mice (no compound administered) were sacrificed fully dark-adapted and the eye retinoids analyzed. Light (bleached) control mice (no compound administered) were sacrificed and retinoids isolated and analyzed immediately after light treatment.
A time course study was performed to determine the isomerase inhibitory activity of the test compound. Male Balb/c mice (4/group) receive test compound orally by gavage. The animals were then “photo-bleached” (5000 Lux white light for 10 minutes) at 2, 4, 8, 16 and 24 hours after dosing, and returned to darkness to allow recovery of the 11-cis-retinal content of the eyes. Mice were sacrificed 2 hours after bleaching, eyes were enucleated, and retinoid content was analyzed by HPLC.
Recovery control mice (vehicle-only treated) were light-treated and left to recover for 2 hours in the dark before sacrifice and analysis. Light control mice (vehicle only treated) were sacrificed for analysis immediately after photo-bleaching.

Row | Compound | inhibition at 1 mg/kg (Time 2 hour) | inhibition at 1 mg/kg (Time 4 hour) | also measured
1 | NCCC(O)c1cccc(/C=C/C2CCCCC2)n1 (centres unmarked) [Example 3, (E)-3-Amino-1-(6-(2-cyclohexylvinyl)pyridin-2-yl)propan-1-ol] | 0% |  | 
2 | NCCC(O)c1cc(C#CC2(O)CCCCC2)cs1 (centres unmarked) [Example 9, 1-((5-(3-Amino-1-hydroxypropyl)thiophen-3-yl)ethynyl)cyclohexanol] | 8.6 ± 4.2% |  | 
3 | CCCC(CCC)COc1cccc([C@H](O)CCN)n1 [Example 19, (R)-3-Amino-1-(6-((2-propylpentyl)oxy)pyridin-2-yl)propan-1-ol] |  | 98.2 ± 2.3% | inhibition at 1 mg/kg (Time 8 hour): 90.7 ± 3.3%

Further lines, with some results ahead:

Row | inhibition at 1 mg/kg (Time 2 hour) | inhibition at 1 mg/kg (Time 4 hour) | Compound | also measured
4 | 68.9 ± 6.5% | 37.7 ± 14.9% | NCC[C@@H](O)c1cccc(OCC2CCCCC2)n1 [Example 6, (R)-3-Amino-1-(6-(cyclohexylmethoxy)pyridin-2-yl)propan-1-ol] | inhibition at 3 mg/kg (Time 2 hour): 93.2 ± 0.9%; inhibition at 3 mg/kg (Time 4 hour): 85.5 ± 2.9%; inhibition at 3 mg/kg (Time 6 hour): 62.3 ± 3.8%; inhibition at 3 mg/kg (Time 8 hour): 30.8 ± 9.9%; inhibition at 3 mg/kg (Time 16 hour): 0%; inhibition at 3 mg/kg (Time 24 hour): 0%
5 | 0% | 0% | NCCC(O)c1ccc(OCC2CCCCC2)s1 (centres unmarked) [Example 1, 3-Amino-1-(5-(cyclohexylmethoxy)thiophen-2-yl)propan-1-ol] | 
6 | 0% |  | NCCC(O)c1cc(OCC2CCCCC2)ccn1 (centres unmarked) [Example 12, 3-Amino-1-(4-(cyclohexylmethoxy)pyridin-2-yl)propan-1-ol] | 
7 | 29.3 ± 4.3% |  | NCCC(O)c1cccc(CCC2CCCCC2)n1 (centres unmarked) [Example 4, 3-Amino-1-(6-(2-cyclohexylethyl)pyridin-2-yl)propan-1-ol] | 
8 | 0% |  | NCC[C@@H](O)c1ccc(OCC2CCCCC2)s1 [Example 5, (R)-3-Amino-1-(5-(cyclohexylmethoxy)thiophen-2-yl)propan-1-ol] | 
